Patent US12139520B2 (priority 2020, dated 2024)
Bridge positions count the residues as written; N and C are the ends. Square brackets hold non-standard residues; d marks the D form. Peptide text beside a SMILES is read from it. Hyp = O=C(O)[C@@H]1C[C@@H](O)CN1; Cit = NC(=O)NCCC[C@H](N)C(=O)O

How the values were obtained:
[1] = Physical stability of peptide analogues (Thioflavin T fibrillation); type: physicochemical; conditions: maximum ThT signal normalized between hAMY maximum and buffer background; 40° C., shaking, four days; pH 7 per table title
Procedure, shortened: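 Samples are stressed at 40 °C for four days, being shaken at 700 rpm before each 10-min fluorescence reading of 4 μM Thioflavin T. Buffers were pH 4 acetate or pH 7 phosphate. Reported values are smoothed maximum ThT signals as a percentage of the hAMY-to-background range.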

hAMY3 receptor = biological target: T1, hAMY3 receptor (Homo sapiens, UniProt O60896+P30988); assay: cAMP assay for in vitro receptor activation, hAMY3-R; type: cell-based; conditions: cAMP assay, hAMY3 receptor; read-out: hAMY3R EC50
T1 sequence (P30988 25-474): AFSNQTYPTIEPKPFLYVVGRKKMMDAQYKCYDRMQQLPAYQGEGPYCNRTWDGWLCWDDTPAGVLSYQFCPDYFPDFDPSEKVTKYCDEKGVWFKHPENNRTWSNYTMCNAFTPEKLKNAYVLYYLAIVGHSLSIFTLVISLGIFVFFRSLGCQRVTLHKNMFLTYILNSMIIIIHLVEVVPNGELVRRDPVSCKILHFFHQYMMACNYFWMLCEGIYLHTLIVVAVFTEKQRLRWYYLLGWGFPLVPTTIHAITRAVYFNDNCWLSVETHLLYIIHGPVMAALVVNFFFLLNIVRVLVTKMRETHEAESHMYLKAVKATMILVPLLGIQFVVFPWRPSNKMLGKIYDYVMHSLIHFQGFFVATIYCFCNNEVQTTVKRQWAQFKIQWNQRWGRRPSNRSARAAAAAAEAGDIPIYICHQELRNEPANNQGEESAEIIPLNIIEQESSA
T1 sequence (O60896 24-148 partner): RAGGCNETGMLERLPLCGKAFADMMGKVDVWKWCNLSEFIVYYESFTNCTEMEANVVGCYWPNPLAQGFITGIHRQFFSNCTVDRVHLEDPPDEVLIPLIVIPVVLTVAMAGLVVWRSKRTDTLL
Procedure, shortened: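 Receptor activation was measured as cAMP accumulation in a monoclonal cell line stably overexpressing hAMY3. Stimulation with graded doses lasted 30 min at room temperature in the presence of 0.5 mM IBMX, with human amylin as positive control.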

SMILES | Max ThT signal (%) [1] | EC50 (hAMY3 receptor)
CC[C@H](C)[C@H](NC(=O)[C@H](CCC(N)=O)NC(=O)[C@H](Cc1c[nH]cn1)NC(=O)[C@H](C)NC(=O)[C@H](CC(C)C)NC(=O)[C@H](CCCNC(=N)N)NC(=O)[C@H](CCC(N)=O)NC(=O)[C@@H](NC(=O)[C@@H](NC(=O)[C@@H]1CSSC[C@H](NC(=O)CN)C(=O)N[C@@H](CCCNC(=N)N)C(=O)N[C@@H]([C@@H](C)O)C(=O)NCC(=O)N[C@@H]([C@@H](C)O)C(=O)N1)[C@@H](C)O)C(C)C)C(=O)N[C@@H](Cc1ccc(O)cc1)C(=O)N[C@@H](CCC(N)=O)C(=O)N[C@@H](Cc1ccccc1)C(=O)N[C@H](C(=O)N[C@@H](CC(=O)O)C(=O)N[C@@H](CCCCN)C(=O)N[C@@H](CC(=O)O)C(=O)N[C@@H](CCCCN)C(=O)N[C@@H](CC(=O)O)C(=O)N[C@@H](CC(N)=O)C(=O)N[C@H](C(=O)N[C@@H](C)C(=O)N1CCC[C@H]1C(=O)N[C@@H](CCCNC(=N)N)C(=O)N[C@H](C(=O)N[C@@H](CCCCN)C(=O)N[C@H](C(=O)NCC(=O)N1CCC[C@H]1C(=O)N[C@@H](CCC(N)=O)C(=O)NCC(=O)N1C[C@H](O)C[C@H]1C(N)=O)C(C)C)[C@@H](C)O)C(C)C)[C@@H](C)O [compound 143] (H-GCRTGTCTVQRLAHQIYQFTDKDKDNVAPRTKVGPQG[Hyp]-NH2; disulfide 2-7; N-terminus assumed) | 2.200% | 0.038 nM
CC[C@H](C)[C@H](NC(=O)[C@H](CCC(N)=O)NC(=O)[C@H](Cc1c[nH]cn1)NC(=O)[C@H](C)NC(=O)[C@H](CC(C)C)NC(=O)[C@H](CCCNC(=N)N)NC(=O)[C@H](CCC(N)=O)NC(=O)[C@@H](NC(=O)[C@@H](NC(=O)[C@@H]1CSSC[C@H](NC(=O)CN)C(=O)N[C@@H](CCCNC(=N)N)C(=O)N[C@@H]([C@@H](C)O)C(=O)NCC(=O)N[C@@H]([C@@H](C)O)C(=O)N1)[C@@H](C)O)C(C)C)C(=O)N[C@@H](Cc1ccc(O)cc1)C(=O)N[C@@H](CCC(N)=O)C(=O)N[C@@H](Cc1ccccc1)C(=O)N[C@H](C(=O)N[C@@H](CC(=O)O)C(=O)N[C@@H](CCCCN)C(=O)N[C@@H](CC(=O)O)C(=O)N[C@@H](CCCCN)C(=O)N[C@@H](CC(=O)O)C(=O)N[C@@H](CC(N)=O)C(=O)N[C@H](C(=O)N[C@@H](C)C(=O)N1CCC[C@H]1C(=O)N[C@@H](CCCNC(=N)N)C(=O)N[C@@H](CO)C(=O)N[C@@H](CCCCN)C(=O)N[C@H](C(=O)NCC(=O)N1CCC[C@H]1C(=O)N[C@@H](CCC(N)=O)C(=O)NCC(=O)N[C@@H](Cc1ccc(O)cc1)C(N)=O)C(C)C)C(C)C)[C@@H](C)O [compound 129] (H-GCRTGTCTVQRLAHQIYQFTDKDKDNVAPRSKVGPQGY-NH2; disulfide 2-7) | 1.400% | 0.029 nM
CC[C@H](C)[C@H](NC(=O)[C@H](CCC(N)=O)NC(=O)[C@H](Cc1c[nH]cn1)NC(=O)[C@H](C)NC(=O)[C@H](CC(C)C)NC(=O)[C@H](CCCNC(=N)N)NC(=O)[C@H](CCC(N)=O)NC(=O)[C@@H](NC(=O)[C@@H](NC(=O)[C@@H]1CSSC[C@H](NC(=O)CN)C(=O)N[C@@H](CCCNC(=N)N)C(=O)N[C@@H]([C@@H](C)O)C(=O)NCC(=O)N[C@@H]([C@@H](C)O)C(=O)N1)[C@@H](C)O)C(C)C)C(=O)N[C@@H](Cc1ccc(O)cc1)C(=O)N[C@@H](CCC(N)=O)C(=O)N[C@@H](Cc1ccccc1)C(=O)N[C@H](C(=O)N[C@@H](CC(=O)O)C(=O)N[C@@H](CCCCN)C(=O)N[C@@H](CC(=O)O)C(=O)N[C@@H](CCCCN)C(=O)N[C@@H](CC(=O)O)C(=O)N[C@@H](CC(N)=O)C(=O)N[C@H](C(=O)N[C@@H](C)C(=O)N1CCC[C@H]1C(=O)N[C@@H](CCCNC(=N)N)C(=O)N[C@@H](CO)C(=O)N[C@@H](CCCCN)C(=O)N[C@H](C(=O)NCC(=O)N1CCC[C@H]1C(=O)N[C@@H](CC(N)=O)C(=O)NCC(=O)N1C[C@H](O)C[C@H]1C(N)=O)C(C)C)C(C)C)[C@@H](C)O [compound 139] (H-GCRTGTCTVQRLAHQIYQFTDKDKDNVAPRSKVGPNG[Hyp]-NH2; disulfide 2-7; N-terminus assumed) | 4.800% | 0.035 nM
CC[C@H](C)[C@H](NC(=O)[C@H](CCC(N)=O)NC(=O)[C@H](Cc1c[nH]cn1)NC(=O)[C@H](C)NC(=O)[C@H](CC(C)C)NC(=O)[C@H](CCCNC(N)=O)NC(=O)[C@H](CCC(N)=O)NC(=O)[C@@H](NC(=O)[C@@H](NC(=O)[C@@H]1CSSC[C@H](NC(=O)CN)C(=O)N[C@@H](CCCNC(=N)N)C(=O)N[C@@H]([C@@H](C)O)C(=O)NCC(=O)N[C@@H]([C@@H](C)O)C(=O)N1)[C@@H](C)O)C(C)C)C(=O)N[C@@H](Cc1ccc(O)cc1)C(=O)N[C@@H](CCC(N)=O)C(=O)N[C@@H](Cc1ccccc1)C(=O)N[C@H](C(=O)N[C@@H](CC(=O)O)C(=O)N[C@@H](CCCCN)C(=O)N[C@@H](CC(=O)O)C(=O)N[C@@H](CCCCN)C(=O)N[C@@H](CC(=O)O)C(=O)N[C@@H](CC(N)=O)C(=O)N[C@H](C(=O)N[C@@H](C)C(=O)N1CCC[C@H]1C(=O)N[C@@H](CCCNC(=N)N)C(=O)N[C@H](C(=O)N[C@@H](CC(N)=O)C(=O)N[C@H](C(=O)N[C@@H](CO)C(=O)N1CCC[C@H]1C(=O)N[C@@H](CC(N)=O)C(=O)NCC(=O)N1C[C@H](O)C[C@H]1C(N)=O)C(C)C)[C@@H](C)O)C(C)C)[C@@H](C)O [compound 302] (H-GCRTGTCTVQ[Cit]LAHQIYQFTDKDKDNVAPRTNVSPNG[Hyp]-NH2; disulfide 2-7; N-terminus assumed) | 24.250% | 0.071 nM

Now those with a lower EC50 (hAMY3 receptor), led by results:

Max ThT signal (%) [1] | EC50 (hAMY3 receptor) | SMILES
9.300% | 0.02 nM | CC[C@H](C)[C@H](NC(=O)[C@H](CCC(N)=O)NC(=O)[C@H](Cc1c[nH]cn1)NC(=O)[C@H](C)NC(=O)[C@H](CC(C)C)NC(=O)[C@H](CCCNC(=N)N)NC(=O)[C@H](CCC(N)=O)NC(=O)[C@@H](NC(=O)[C@@H](NC(=O)[C@@H]1CSSC[C@H](NC(=O)CN)C(=O)N[C@@H](CCCNC(=N)N)C(=O)N[C@@H]([C@@H](C)O)C(=O)NCC(=O)N[C@@H]([C@@H](C)O)C(=O)N1)[C@@H](C)O)C(C)C)C(=O)N[C@@H](Cc1ccc(O)cc1)C(=O)N[C@@H](CCC(N)=O)C(=O)N[C@@H](Cc1ccccc1)C(=O)N[C@H](C(=O)N[C@@H](CC(=O)O)C(=O)N[C@@H](CCCCN)C(=O)N[C@@H](CC(=O)O)C(=O)N[C@@H](CCCCN)C(=O)N[C@@H](CC(=O)O)C(=O)N[C@@H](CC(N)=O)C(=O)N[C@H](C(=O)N[C@@H](C)C(=O)N1CCC[C@H]1C(=O)N[C@@H](CCCNC(=N)N)C(=O)N[C@H](C(=O)N[C@@H](CC(N)=O)C(=O)N[C@H](C(=O)NCC(=O)N1CCC[C@H]1C(=O)N[C@@H](CCC(N)=O)C(=O)NCC(=O)N[C@@H](Cc1ccc(O)cc1)C(N)=O)C(C)C)[C@@H](C)O)C(C)C)[C@@H](C)O [compound 109] (H-GCRTGTCTVQRLAHQIYQFTDKDKDNVAPRTNVGPQGY-NH2; disulfide 2-7; N-terminus assumed)
3.200% | 0.011 nM | CC[C@H](C)[C@H](NC(=O)[C@H](CCC(N)=O)NC(=O)[C@H](Cc1c[nH]cn1)NC(=O)[C@H](C)NC(=O)[C@H](CC(C)C)NC(=O)[C@H](CCCNC(=N)N)NC(=O)[C@H](CCC(N)=O)NC(=O)[C@@H](NC(=O)[C@@H](NC(=O)[C@@H]1CSSC[C@H](NC(=O)CN)C(=O)N[C@@H](CCCNC(=N)N)C(=O)N[C@@H]([C@@H](C)O)C(=O)NCC(=O)N[C@@H]([C@@H](C)O)C(=O)N1)[C@@H](C)O)C(C)C)C(=O)N[C@@H](Cc1ccc(O)cc1)C(=O)N[C@@H](CCC(N)=O)C(=O)N[C@@H](Cc1ccccc1)C(=O)N[C@H](C(=O)N[C@@H](CC(=O)O)C(=O)N[C@@H](CCCCN)C(=O)N[C@@H](CC(=O)O)C(=O)N[C@@H](CCCCN)C(=O)N[C@@H](CC(=O)O)C(=O)N[C@@H](CC(N)=O)C(=O)N[C@H](C(=O)N[C@@H](C)C(=O)N1CCC[C@H]1C(=O)N[C@@H](CCCNC(=N)N)C(=O)N[C@H](C(=O)N[C@@H](CC(N)=O)C(=O)N[C@H](C(=O)NCC(=O)N1CCC[C@H]1C(=O)N[C@@H](CCC(N)=O)C(=O)NCC(=O)N1C[C@H](O)C[C@H]1C(N)=O)C(C)C)[C@@H](C)O)C(C)C)[C@@H](C)O [compound 49] (H-GCRTGTCTVQRLAHQIYQFTDKDKDNVAPRTNVGPQG[Hyp]-NH2; disulfide 2-7; N-terminus assumed)
